Test results: patent EP1131089B1, “STABLE AQUEOUS INSULIN PREPARATIONS WITHOUT PHENOL AND CRESOL” (Novo Nordisk A/S, priority 1998, dated 2000)

Experiments:
human insulin [1] = assay: Physical stability of insulin solution with stabiliser, visual inspection for precipitation on storage at 5 °C; format: physicochemical; conditions: 0.5 Zn2+/insulin, NaCl 15 mM, glycylglycine 7 mM, tween 20 0.01 %, pH 7.5
Method: (§1) 27.5 ml of a 21 mM insulin stock solution was made by dissolving 3.707 g zinc free human insulin in 14 ml water and adding 2888 µl of 0.1 M ZnCl2 and 7 ml water before adjusting pH to 7.5 by 0.2 M NaOH and finally adding water to 27.5 ml, calculating the specific volume of insulin as 0.7 µl/mg. The stock solution was filtrated. A preparation of 3.5 ml 15 mM insulin was then made by adding 23 µl 2.3 M stabiliser in ethanol, 49 µl 0.5 M glycylglycine and 35 µl 1 % Tween 20 and water to 3.5 ml. The solution was thereafter diluted with medium containing sodium chloride 15 mM, glycylglycine 7 mM, Tween 20 0.01 %, pH 7.5 to 12, 9, 6, 3 and 0.6 mM insulin and stored at 5 °C for visual inspection. The reference solution was made by the same way but without adding a stabiliser. The chemical stability of the insulin solutions were followed at 37 °C for two concentrations, 3 and 15 mM, by determination of covalent insulin polymer by size exclusion chromatography. The analysis of insulin polymer was performed on Waters PROTEIN PAK 125 (250 x 8 mm) with an eluent containing 2.5 M acetic acid, 4 mM L-arginine and 20 %(V/V) acetonitrile at a flow rate of 1 ml/min. and ambient temperature. Detection was performed with a tunable absorbance detector (Waters 486) at 276 nm. Injection volume were […] for 3 and 15 mM insulin solutions, respectively.
(§2) 3.26 g human insulin (0.4 equivalent Zn^2+ per insulin) was dispersed in water in 18 ml water on icebath and added 490 µl 0.5 M glycylglycine and 1628 µl sodium hydroxide (3.1 equivalent) and stirred slowly overnight at 5 °C. 613 µl 0.1 M zinc chloride (0.1 equivalent of zinc) was then added the solution, pH adjusted to 7.5 by 410 µl 1 M hydrochloric acid (0.8 equivalent of chloride) and the volume adjusted to 25 ml by water. Finally the stock solution of 21 mM insulin was filtrated. 3.57 ml of the stock solution was added 50 µl 1 % tween 20, 750 µl 0.1 M stabiliser and 630 µl water to obtain 5 ml 15 mM insulin formulation. Finally the preparation was diluted with medium containing sodium chloride, glycylglycine and detergent to obtain 12, 9, 6, and 3 mM of human insulin and stored at 5 °C for visual inspection. The chemical stability of 3 and 15 mM insulin solutions were followed at 37 °C by determination of covalent insulin polymer by size exclusion chromatography.

human insulin [2] = assay: Chemical stability at 37 °C, covalent insulin polymer determined by size exclusion chromatography; format: physicochemical; conditions: stabiliser equimolar to insulin, 0.5 Zn2+/insulin, NaCl 15 mM, glycylglycine 7 mM, tween 20 0.01 %, pH 7.5
Method: as §1, §2

[3] = example 1, stabiliser equimolar to insulin
[4] = example 2, stabiliser equimolar to insulin

SMILES | Physical stability of solution at 4 weeks and 5°C Maximal insulin concentration at which the solution was without precipitation up to 15 mM (3, 6, 9, 12, 15mM) (human insulin [1]; [3]) [mM] | Chemical stability at 37°C (% polymer / week) Insulin solution of 3 mM (human insulin [2]; example 1, 3 mM insulin) [% polymer / week] | Chemical stability at 37°C (% polymer / week) Insulin solution of 15 mM (human insulin [2]; example 1, 15 mM insulin) [% polymer / week] | Physical stability of solution at 4 weeks and 5°C Maximal insulin concentration at which the solution was without precipitation up to 15 mM (3, 6, 9, 12, 15mM) (human insulin [1]; [4]) [mM] | Chemical stability at 37°C (% polymer / week) Insulin solution of 3 mM (human insulin [2]; example 2, 3 mM insulin) [% polymer / week] | Chemical stability at 37°C (% polymer / week) Insulin solution of 15 mM (human insulin [2]; example 2, 15 mM insulin) [% polymer / week]
CC1(C)C2CCC1(C)C(O)C2 (single isomer, unassigned; (+)) [(+)-borneol] | 9 | 0.47 | 0.61 | – | – | –
CC1C(O)CC2CC1C2(C)C (single isomer, unassigned; (+)) [(+)-isopinocampheol] | 12 | 0.49 | 0.61 | – | – | –
CC1(C)C2CCC1(C)C(O)C2 (single isomer, unassigned; (-)) [(-)-borneol] | 9 | 0.43 | 0.47 | – | – | –
CC1C(O)CC2CC1C2(C)C (single isomer, unassigned; (-)) [(-)-isopinocampheol] | 15 | 0.53 | 0.56 | – | – | –
CC1(C)[C@H]2CC[C@](C)(C2)[C@H]1O [(+)-fenchol] | 15 | 0.50 | 0.97 | – | – | –
CC1(C)[C@H]2CC[C@H](CO)[C@@H]1C2 [(-)-trans-myrtanol] | 15 | 0.64 | 0.95 | – | – | –
Nc1ncnc2nc[nH]c12 [adenine] | – | – | – | 9 | 0.59 | 0.77
Oc1ccccc1 [phenol] | 15 | 0.37 | 0.39 | 15 | 0.32 | 0.29
c1ncc2[nH]cnc2n1 [purine] | – | – | – | 15 | 0.58 | 0.71
